The values that follow come from patent publication US9878982B2, “Pyridine derivatives and anti-mycobacterial use thereof” (priority 2014, dated 2018).

In data set [1] the test system is Mycobacterium smegmatis strain ATCC19420. The data set is described as follows: In vitro efficacy test using Mycobacterium smegmatis strain ATCC19420 (MIC). Format: cell-based. The following applies: CA-MHB + 0.02% Tween 80, 30° C., read after 72 hours; for MIC: Mycolicibacterium smegmatis, ATCC19420, 72 h.
Another data set has as its system M. tuberculosis H37Rv. The data set can be described thus: In vitro efficacy test using the H37Rv strain, Microplate Alamar Blue Assay (MABA) MIC. The following applies: for MIC: Mycobacterium tuberculosis, H37RV. Format: cell-based, Mycobacterium tuberculosis. (In general: Resazurin is reduced to fluorescent resorufin, in cell work by metabolically active cells.)

A further data set deals with M. tuberculosis H37R. The data set is described as follows: microbe, parasite or virus in culture. Type of data set: cell-based, Mycobacterium tuberculosis. The following applies: for MIC: Mycobacterium tuberculosis, H37R, read-out: M. tuberculosis H37R LORA (MIC).
The subject of the next data set is Vero Cell. The data set can be described thus: Vero cell cytotoxicity (IC50). Format: cell-based. The following applies: Chlorocebus sabaeus, Vero, African green monkey kidney cells.
Data set [2] is described as follows: Hela cell cytotoxicity (CC50). The following applies: human, HeLa cells (human cervical cancer cells), CC50_Hela, half of the toxic concentration.
Setting [3] is: aerobic, 7H9 medium, Alamar Blue, read-out: M. tuberculosis H37Rv MABA (MIC).
[4] abbreviates: wild-type H37Rv strain, two values per compound, read-out: MABA MIC vs. H37Rv.
The mark [5] stands for this setting: wild-type H37Rv strain, two values per compound.

Values after ≈ are worked out from the molar mass of the structure shown. Like-named read-outs stand apart in the source and are kept apart here. Some results are limits rather than exact numbers.

In the case of `COc1ncc(-c2ccccc2)cc1C(c1ccccc1)C(O)(CCN(C)C)c1cccc2ccccc12` (stereo not drawn) [Compound 9, 4-(dimethylamino)-1-(2-methoxy-5-phenylpyridin-3-yl)-2-(naphthalen-1-yl)-1-phenylbutan-2-ol], the MIC in data set [1] turned out to be 0.0312 µg/mL; in the data set on M. tuberculosis H37Rv (setting [3]) it was 1.08 µg/mL; with M. tuberculosis H37Rv (setting [4]), 0.46 µM; in the data set with M. tuberculosis H37R, 0.72 µg/mL (≈ 1.43 µM). For the same compound, the “MABA MIC vs. H37Rv” value in the data set with M. tuberculosis H37Rv (setting [5]) is 0.36 µM. Also, the IC50 in the data set on Vero Cell was more than 50 µg/mL. This compound showed a 50% cytotoxic concentration (CC50) in data set [2] of 30.4 µg/mL (≈ 60.4 µM).

Consider `COc1ncc(-c2cccnc2)cc1C(c1ccccc1)C(O)(CCN(C)C)c1cccc2ccccc12` (stereo not drawn) [Compound 19, 4-(dimethylamino)-1-(6-methoxy-[3,3′-bipyridin]-5-yl)-2-(naphthalen-1-yl)-1-phenylbutan-2-ol], for which the values for the MIC (in data set [1]; in the data set on M. tuberculosis H37Rv (setting [3]); with M. tuberculosis H37R) were 0.5 µg/mL, 2.85 µg/mL and 3.11 µg/mL (≈ 6.17 µM), respectively. This compound yielded a 50% inhibitory concentration (IC50) in the data set on Vero Cell of more than 50 µg/mL. The compound further returned a half-maximal cytotoxic concentration (CC50) in data set [2] of 10.3 µg/mL (≈ 20.4 µM).

With `COc1ncc(-c2ccccc2)cc1C(c1ccccc1)C(O)(CCN(C)C)c1cccc(F)c1F` (stereo not drawn) [Compound 31, 2-(2,3-difluorophenyl)-4-(dimethylamino)-1-(2-methoxy-5-phenylpyridin-3-yl)-1-phenylbutan-2-ol], the values for the MIC (in data set [1]; in the data set with M. tuberculosis H37Rv (setting [3]); with M. tuberculosis H37R) were 0.25 µg/mL, 0.58 µg/mL and 0.46 µg/mL (≈ 0.942 µM), respectively. Besides, the 50% inhibitory concentration (IC50) with Vero Cell is more than 50 µg/mL. For the same compound, in data set [2], the cytotoxic concentration (CC50) was found to be 28.1 µg/mL (≈ 57.5 µM).

Consider `COc1ncc(-c2ccccc2)cc1C(c1ccccc1)C(O)(CCN(C)C)c1cc(F)cc(F)c1` (stereo not drawn) [Compound 35, 2-(3,5-difluorophenyl)-4-(dimethylamino)-1-(2-methoxy-5-phenylpyridin-3-yl)-1-phenylbutan-2-ol], for which the MIC is not above 0.0625 µg/mL in data set [1], 0.73 µg/mL in the data set with M. tuberculosis H37Rv (setting [3]) and 0.37 µg/mL (≈ 0.757 µM) in the data set with M. tuberculosis H37R. This compound also displayed an IC50 in the data set with Vero Cell of more than 50 µg/mL. The cytotoxic concentration (CC50) in data set [2] worked out at 28.9 µg/mL (≈ 59 µM).

On to `COc1ncc(C2CCCC2)cc1C(c1ccccc1)C(O)(CCN(C)C)c1cccc2ccccc12` (stereo not drawn) [Compound 63], for which the “M. smegmatis ATCC19420 MIC” value in data set [1] is less than 0.0625 µg/mL. Besides, the “M. tuberculosis H37Rv MABA (MIC)” value in the data set with M. tuberculosis H37Rv (aerobic, 7H9 medium, Alamar Blue) came to 0.75 µg/mL. Further, the “M. tuberculosis H37R LORA (MIC)” value in the data set with M. tuberculosis H37R worked out at 1.41 µg/mL. Besides, in the data set with Vero Cell, the half-maximal inhibitory concentration (IC50) was more than 50 µg/mL. The CC50 in data set [2] amounted to 52.9 µg/mL (≈ 107 µM).

For the compound `COc1ncc(-c2ccccc2)cc1C(c1ccc(F)cc1)C(O)(CCN(C)C)c1ccccc1` (stereo not drawn) [Compound 70, 4-(dimethylamino)-1-(4-fluorophenyl)-1-(2-methoxy-5-phenylpyridin-3-yl)-2-phenylbutan-2-ol], the values for the MIC (in data set [1]; in the data set on M. tuberculosis H37Rv (setting [3]); in the data set on M. tuberculosis H37R) were 0.125 µg/mL, 1.49 µg/mL and 1.33 µg/mL (≈ 2.83 µM), respectively. This compound also had a concentration for half-maximal inhibition (IC50) in the data set with Vero Cell of more than 50 µg/mL. In data set [2], this compound gave a CC50 of 13.7 µg/mL (≈ 29.1 µM).

With `COc1ncc(C2CCOCC2)cc1C(c1ccccc1)C(O)(CCN(C)C)c1cccc2ccccc12` (stereo not drawn) [Compound 75, 4-(dimethylamino)-1-(2-methoxy-5-(tetrahydro-2H-pyran-4-yl)pyridin-3-yl)-2-(naphthalen-1-yl)-1-phenylbutan-2-ol], the MIC in data set [1] amounted to 0.125 µg/mL; in the data set with M. tuberculosis H37Rv (setting [3]), 1.32 µg/mL; in the data set with M. tuberculosis H37R, 2.73 µg/mL (≈ 5.35 µM). In the data set with Vero Cell, this compound came in with a 50% inhibitory concentration (IC50) of more than 50 µg/mL. This compound also registered a half-maximal cytotoxic concentration (CC50) in data set [2] of 22.5 µg/mL (≈ 44 µM).

Consider `COc1ncc(-c2cccc(F)c2)cc1C(c1ccccc1)C(O)(CCN(C)C)c1cccc2ccccc12` (stereo not drawn) [Compound 87, 4-(dimethylamino)-1-(5-(3-fluorophenyl)-2-methoxypyridin-3-yl)-2-(naphthalen-1-yl)-1-phenylbutan-2-ol], for which the MIC in data set [1] is not above 0.0625 µg/mL; in the data set on M. tuberculosis H37Rv (setting [3]), 0.48 µg/mL; with M. tuberculosis H37R, 1.18 µg/mL (≈ 2.27 µM). The compound further had an IC50 in the data set on Vero Cell of more than 50 µg/mL. In data set [2], this compound registered a CC50 of 62.8 µg/mL (≈ 121 µM).

Regarding `COc1ncc(-c2ccc(F)cc2)cc1C(c1ccccc1)C(O)(CCN(C)C)c1cccc2ccccc12` (stereo not drawn) [Compound 91, 4-(dimethylamino)-1-(5-(4-fluorophenyl)-2-methoxypyridin-3-yl)-2-(naphthalen-1-yl)-1-phenylbutan-2-ol], the MIC worked out at 0.0312 µg/mL in data set [1], 0.34 µg/mL in the data set with M. tuberculosis H37Rv (setting [3]) and 0.71 µg/mL (≈ 1.36 µM) in the data set on M. tuberculosis H37R. The compound also displayed a 50% inhibitory concentration (IC50) with Vero Cell of more than 50 µg/mL. In addition, in data set [2], the 50% cytotoxic concentration (CC50) was more than 64 µg/mL.

Take `COc1ncc(-c2ccccc2Cl)cc1C(c1ccccc1)C(O)(CCN(C)C)c1cccc2ccccc12` (stereo not drawn) [Compound 107]: the figures for the MIC (in data set [1]; in the data set with M. tuberculosis H37Rv (setting [3]); in the data set on M. tuberculosis H37R) were 0.5 µg/mL, 1.17 µg/mL and 3.03 µg/mL (≈ 5.64 µM), respectively. In the data set with Vero Cell, the 50% inhibitory concentration (IC50) is more than 50 µg/mL. The CC50 in data set [2] was more than 64 µg/mL.

Take `COc1ncc(-c2ccc(Cl)cc2)cc1C(c1ccccc1)C(O)(CCN(C)C)c1cccc2ccccc12` (stereo not drawn) [Compound 115, 1-(5-(4-chlorophenyl)-2-methoxypyridin-3-yl)-4-(dimethylamino)-2-(naphthalen-1-yl)-1-phenylbutan-2-ol]: the MIC in data set [1] was determined as 0.0156 µg/mL; with M. tuberculosis H37Rv (setting [3]), 0.08 µg/mL; with M. tuberculosis H37Rv (setting [4]), 0.06 µM; with M. tuberculosis H37R, 0.56 µg/mL (≈ 1.04 µM). In the data set on M. tuberculosis H37Rv, the “inhibitory activity against M. tuberculosis H37Rv, aerobic (MABA) (in words)” value is “comparable to that of the marketed anti-TB drug, Bedaquiline”. Further, in the data set with Vero Cell, the half-inhibitory concentration (IC50) is more than 50 µg/mL. For the same compound, the CC50 in data set [2] is more than 64 µg/mL.

In the case of `COc1ncc(-c2ccccc2Br)cc1C(c1ccccc1)C(O)(CCN(C)C)c1cccc2ccccc12` (stereo not drawn) [Compound 125, 1-(5-(2-bromophenyl)-2-methoxypyridin-3-yl)-4-(dimethylamino)-2-(naphthalen-1-yl)-1-phenylbutan-2-ol], the values for the MIC (in data set [1]; in the data set on M. tuberculosis H37Rv (setting [3]); in the data set with M. tuberculosis H37R) were 0.5 µg/mL, 1.84 µg/mL and 1.89 µg/mL (≈ 3.25 µM), respectively. Further, the IC50 in the data set with Vero Cell is more than 32 µg/mL. The compound further registered a CC50 in data set [2] of more than 64 µg/mL.

Turning to `COc1ncc(-c2cccc(Br)c2)cc1C(c1ccccc1)C(O)(CCN(C)C)c1cccc2ccccc12` (stereo not drawn) [Compound 129, 1-(5-(3-bromophenyl)-2-methoxypyridin-3-yl)-4-(dimethylamino)-2-(naphthalen-1-yl)-1-phenylbutan-2-ol], the MIC was determined as 0.5 µg/mL in data set [1], 1.88 µg/mL in the data set with M. tuberculosis H37Rv (setting [3]) and 2.57 µg/mL (≈ 4.42 µM) in the data set on M. tuberculosis H37R. The same compound had a 50% inhibitory concentration (IC50) with Vero Cell of more than 32 µg/mL. Further, the CC50 in data set [2] is more than 64 µg/mL.

On to `COc1ncc(-c2ccc(Br)cc2)cc1C(c1ccccc1)C(O)(CCN(C)C)c1cccc2ccccc12` (stereo not drawn) [Compound 133, 1-(5-(4-bromophenyl)-2-methoxypyridin-3-yl)-4-(dimethylamino)-2-(naphthalen-1-yl)-1-phenylbutan-2-ol], for which the MIC was found to be 0.0156 µg/mL in data set [1], 0.22 µg/mL in the data set on M. tuberculosis H37Rv (setting [3]), 0.12 µM with M. tuberculosis H37Rv (setting [4]) and 0.22 µg/mL (≈ 0.378 µM) in the data set with M. tuberculosis H37R. For the same compound, the “inhibitory activity against M. tuberculosis H37Rv, aerobic (MABA) (in words)” value in the data set on M. tuberculosis H37Rv is “comparable to that of the marketed anti-TB drug, Bedaquiline”. In addition, the “MABA MIC vs. H37Rv” value in the data set on M. tuberculosis H37Rv (setting [5]) amounted to 0.10 µM. This compound showed an IC50 in the data set on Vero Cell of more than 32 µg/mL. Also, the CC50 in data set [2] is more than 64 µg/mL.

Consider `COc1ncc(-c2ccsc2)cc1C(c1ccccc1)C(O)(CCN(C)C)c1cccc2ccccc12` (stereo not drawn) [Compound 136, 4-(dimethylamino)-1-(2-methoxy-5-(thiophen-3-yl)pyridin-3-yl)-2-(naphthalen-1-yl)-1-phenylbutan-2-ol], for which the figures for the MIC (in data set [1]; with M. tuberculosis H37Rv (setting [3]); in the data set on M. tuberculosis H37R) were 0.0312 µg/mL, 0.35 µg/mL and 0.79 µg/mL (≈ 1.55 µM), respectively. Besides, in the data set on Vero Cell, the IC50 was more than 50 µg/mL. This compound came in with a CC50 in data set [2] of more than 64 µg/mL.

Turning to `COc1ncc(-c2cccs2)cc1C(c1ccccc1)C(O)(CCN(C)C)c1cccc2ccccc12` (stereo not drawn) [Compound 141, 4-(dimethylamino)-1-(2-methoxy-5-(thiophen-2-yl)pyridin-3-yl)-2-(naphthalen-1-yl)-1-phenylbutan-2-ol], the MIC in data set [1] was not above 0.0625 µg/mL; with M. tuberculosis H37Rv (setting [3]), 0.93 µg/mL; with M. tuberculosis H37R, 1.44 µg/mL (≈ 2.83 µM). It took 24.4 µg/mL (≈ 47.9 µM) to reach half-maximal inhibition in the data set with Vero Cell (IC50). In data set [2], this compound yielded a CC50 of more than 64 µg/mL.

For orientation: IC50 means the concentration that inhibits the measured activity by half. The term CC50 denotes the concentration at which the toxic effect on the cells reaches its halfway point.
